{
  "source": "ChEMBL document CHEMBL5303573",
  "about": "“Mapping human microbiome drug metabolism by gut bacteria and their genes” (Nature, 2019)",
  "key": {"[1]": {"assay": "The drug is tested on Salmonella typhimurium strain: LT2 for biotransformation. The drug concentrations were measured before and after a 12-h incubation by liquid-chromatography-coupled mass spectrometry (LC–MS)", "conditions": "salmonella enterica subsp. enterica, 2 µM"}, "[2]": {"assay": "The drug is tested on the gut metagenome community of MV25 with ENA study accession number: PRJEB31790 and ENA sample accession number: SAMEA5537506 for biotransformation. The drug concentrations were measured over 9 timepoints collected between 0 and 24 hours of incubation by liquid-chromatography-coupled mass spectrometry (LC–MS)", "assay_type": "ADME", "design": "dose 2 uM, timepoint 0, 1, 2, 4, 6, 8, 12, 18, 24 hours", "conditions": "2 µM"}, "[3]": {"assay": "The drug is tested on the gut metagenome community of MV28 with ENA study accession number: PRJEB31790 and ENA sample accession number: SAMEA5537509 for biotransformation. The drug concentrations were measured over 9 timepoints collected between 0 and 24 hours of incubation by liquid-chromatography-coupled mass spectrometry (LC–MS)", "assay_type": "ADME", "design": "dose 2 uM, timepoint 0, 1, 2, 4, 6, 8, 12, 18, 24 hours", "conditions": "2 µM"}, "[4]": {"assay": "The drug is tested on the gut metagenome community of MV19 with ENA study accession number: PRJEB31790 and ENA sample accession number: SAMEA5537500 for biotransformation. The drug concentrations were measured over 9 timepoints collected between 0 and 24 hours of incubation by liquid-chromatography-coupled mass spectrometry (LC–MS)", "assay_type": "ADME", "design": "dose 2 uM, timepoint 0, 1, 2, 4, 6, 8, 12, 18, 24 hours", "conditions": "2 µM"}, "[5]": {"assay": "The drug is tested on the gut metagenome community of MV09 with ENA study accession number: PRJEB31790 and ENA sample accession number: SAMEA5537490 for biotransformation. The drug concentrations were measured over 9 timepoints collected between 0 and 24 hours of incubation by liquid-chromatography-coupled mass spectrometry (LC–MS)", "assay_type": "ADME", "design": "dose 2 uM, timepoint 0, 1, 2, 4, 6, 8, 12, 18, 24 hours", "conditions": "2 µM"}, "[6]": {"assay": "The drug is tested on the gut metagenome community of MV22 with ENA study accession number: PRJEB31790 and ENA sample accession number: SAMEA5537503 for biotransformation. The drug concentrations were measured over 9 timepoints collected between 0 and 24 hours of incubation by liquid-chromatography-coupled mass spectrometry (LC–MS)", "assay_type": "ADME", "design": "dose 2 uM, timepoint 0, 1, 2, 4, 6, 8, 12, 18, 24 hours", "conditions": "2 µM"}, "[7]": {"assay": "The drug is tested on the gut metagenome community of MV01 with ENA study accession number: PRJEB31790 and ENA sample accession number: SAMEA5537482 for biotransformation. The drug concentrations were measured over 9 timepoints collected between 0 and 24 hours of incubation by liquid-chromatography-coupled mass spectrometry (LC–MS)", "assay_type": "ADME", "design": "dose 2 uM, timepoint 0, 1, 2, 4, 6, 8, 12, 18, 24 hours", "conditions": "2 µM"}, "[8]": {"assay": "The drug is tested on the gut metagenome community of MV10 with ENA study accession number: PRJEB31790 and ENA sample accession number: SAMEA5537491 for biotransformation. The drug concentrations were measured over 9 timepoints collected between 0 and 24 hours of incubation by liquid-chromatography-coupled mass spectrometry (LC–MS)", "assay_type": "ADME", "design": "dose 2 uM, timepoint 0, 1, 2, 4, 6, 8, 12, 18, 24 hours", "conditions": "2 µM"}, "[9]": {"assay": "The drug is tested on the gut metagenome community of MV13 with ENA study accession number: PRJEB31790 and ENA sample accession number: SAMEA5537494 for biotransformation. The drug concentrations were measured over 9 timepoints collected between 0 and 24 hours of incubation by liquid-chromatography-coupled mass spectrometry (LC–MS)", "assay_type": "ADME", "design": "dose 2 uM, timepoint 0, 1, 2, 4, 6, 8, 12, 18, 24 hours", "conditions": "2 µM"}, "[10]": {"assay": "The drug is tested on the gut metagenome community of MV05 with ENA study accession number: PRJEB31790 and ENA sample accession number: SAMEA5537486 for biotransformation. The drug concentrations were measured over 9 timepoints collected between 0 and 24 hours of incubation by liquid-chromatography-coupled mass spectrometry (LC–MS)", "assay_type": "ADME", "design": "dose 2 uM, timepoint 0, 1, 2, 4, 6, 8, 12, 18, 24 hours", "conditions": "2 µM"}, "[11]": {"assay": "The drug is tested on the gut metagenome community of MV27 with ENA study accession number: PRJEB31790 and ENA sample accession number: SAMEA5537508 for biotransformation. The drug concentrations were measured over 9 timepoints collected between 0 and 24 hours of incubation by liquid-chromatography-coupled mass spectrometry (LC–MS)", "assay_type": "ADME", "design": "dose 2 uM, timepoint 0, 1, 2, 4, 6, 8, 12, 18, 24 hours", "conditions": "2 µM"}, "[12]": {"assay": "The drug is tested on the gut metagenome community of MV14 with ENA study accession number: PRJEB31790 and ENA sample accession number: SAMEA5537495 for biotransformation. The drug concentrations were measured over 9 timepoints collected between 0 and 24 hours of incubation by liquid-chromatography-coupled mass spectrometry (LC–MS)", "assay_type": "ADME", "design": "dose 2 uM, timepoint 0, 1, 2, 4, 6, 8, 12, 18, 24 hours", "conditions": "2 µM"}, "[13]": {"assay": "The drug is tested on the gut metagenome community of MV26 with ENA study accession number: PRJEB31790 and ENA sample accession number: SAMEA5537507 for biotransformation. The drug concentrations were measured over 9 timepoints collected between 0 and 24 hours of incubation by liquid-chromatography-coupled mass spectrometry (LC–MS)", "assay_type": "ADME", "design": "dose 2 uM, timepoint 0, 1, 2, 4, 6, 8, 12, 18, 24 hours", "conditions": "2 µM"}, "[14]": {"assay": "The drug is tested on the gut metagenome community of MV18 with ENA study accession number: PRJEB31790 and ENA sample accession number: SAMEA5537499 for biotransformation. The drug concentrations were measured over 9 timepoints collected between 0 and 24 hours of incubation by liquid-chromatography-coupled mass spectrometry (LC–MS)", "assay_type": "ADME", "design": "dose 2 uM, timepoint 0, 1, 2, 4, 6, 8, 12, 18, 24 hours", "conditions": "2 µM"}, "[15]": {"assay": "The drug is tested on the gut metagenome community of MV02 with ENA study accession number: PRJEB31790 and ENA sample accession number: SAMEA5537483 for biotransformation. The drug concentrations were measured over 9 timepoints collected between 0 and 24 hours of incubation by liquid-chromatography-coupled mass spectrometry (LC–MS)", "assay_type": "ADME", "design": "dose 2 uM, timepoint 0, 1, 2, 4, 6, 8, 12, 18, 24 hours", "conditions": "2 µM"}, "[16]": {"assay": "The drug is tested on the gut metagenome community of MV04 with ENA study accession number: PRJEB31790 and ENA sample accession number: SAMEA5537485 for biotransformation. The drug concentrations were measured over 9 timepoints collected between 0 and 24 hours of incubation by liquid-chromatography-coupled mass spectrometry (LC–MS)", "assay_type": "ADME", "design": "dose 2 uM, timepoint 0, 1, 2, 4, 6, 8, 12, 18, 24 hours", "conditions": "2 µM"}},
  "data": [
    {"smiles": "CC(C)(C)NC[C@H](O)COc1ccccc1C1CCCC1.CC(C)(C)NC[C@H](O)COc1ccccc1C1CCCC1.O=S(=O)(O)O", "note": "[PENBUTOLOL SULFATE]", "values": [
      {"measurement": "Bacterial Biotransformation", "setting": "[1]", "result": "Compound NOT metabolized"}
    ]},
    {"smiles": "C[C@@H]1C[C@H]2[C@@H]3CCC4=CC(=O)C=C[C@]4(C)[C@@]3(F)[C@@H](O)C[C@]2(C)[C@@]1(O)C(=O)CO", "note": "[DEXAMETHASONE]", "values": [
      {"measurement": "Bacterial Biotransformation", "setting": "[2]", "result": "Compound NOT metabolized"},
      {"measurement": "Bacterial Biotransformation", "setting": "[3]", "result": "Compound NOT metabolized"},
      {"measurement": "Bacterial Biotransformation", "setting": "[4]", "result": "Compound NOT metabolized"},
      {"measurement": "Bacterial Biotransformation", "setting": "[5]", "result": "Compound metabolized"},
      {"measurement": "Bacterial Biotransformation", "setting": "[6]", "result": "Compound NOT metabolized"},
      {"measurement": "Bacterial Biotransformation", "setting": "[7]", "result": "Compound NOT metabolized"},
      {"measurement": "Bacterial Biotransformation", "setting": "[8]", "result": "Compound metabolized"},
      {"measurement": "Bacterial Biotransformation", "setting": "[9]", "result": "Compound NOT metabolized"},
      {"measurement": "Bacterial Biotransformation", "setting": "[10]", "result": "Compound NOT metabolized"},
      {"measurement": "Bacterial Biotransformation", "setting": "[11]", "result": "Compound NOT metabolized"},
      {"measurement": "Bacterial Biotransformation", "setting": "[12]", "result": "Compound NOT metabolized"},
      {"measurement": "Bacterial Biotransformation", "setting": "[13]", "result": "Compound NOT metabolized"},
      {"measurement": "Bacterial Biotransformation", "setting": "[14]", "result": "Compound NOT metabolized"},
      {"measurement": "Bacterial Biotransformation", "setting": "[15]", "result": "Compound NOT metabolized"},
      {"measurement": "Bacterial Biotransformation", "setting": "[16]", "result": "Compound NOT metabolized"}
    ]}
  ]
}
